Assays:
spinach = test: Inhibitory test against pore closing; type: in vivo; conditions: for inhibitory activities against pore closing: plants with open pores treated with compound, transferred into mannose solution of high concentration
Protocol: Inhibitory tests against pore closing were carried out by using the aforementioned compounds. In these tests, plants in the state that their pores are open are treated with the compounds, and closings of the pores are examined when the plants are transferred into a mannose solution of high concentration to make the pores closed. Pore closing is caused by the effect of abscisic acid biosynthesized in the body of a plant that has detected the change of the mannose concentration. The test was carried out according to the method described in the literature of Plant Physiology (1992) 99, 1258-1260 and by using spinach as a material.

Mung bean = test: Root length of cut Mung bean hypocotyls soaked in compound solutions; type: in vivo; conditions: Mung bean hypocotyls soaked by 2 cm in compound solution at a given concentration; 6th day after soaking
Protocol: The compounds of the present invention were applied to plant bodies. Hypocotyls of Mung bean on the 6th-day after seeding, that were grown at 25° C., were cut in water with razor, and the hypocotyl parts were soaked by 2 cm in solutions of the compounds at a given concentration. On the 6th day after the soaking, the lengths of the roots were measured. The following results were shown as an average length per root.

seeds of barley = test: Germination rate of barley seeds; type: in vivo; conditions: barley seeds with lowered germination rate; 100 seeds, test solution at a given concentration, light, 25° C., after one week
Protocol: In the test, 2 sheets of filter paper were placed in a 15 cm laboratory dish, and each of the test solutions of the compounds at a given concentration (10 ml) was added to the dish, and 100 seeds were put on the paper and cultured under a light at 25° C. Ratios of germinated seeds were calculated after one week.

[1] = tested on: abscisic acid biosynthesis; conditions: reported in Plant Physiology (1992) 99, 1258-1260; cited from earlier work
[2] = tested on: epoxycarotenoid dioxygenase (NCED); test: Inhibitory action against epoxycarotenoid dioxygenase (NCED): cleavage reaction of neoxanthin; type: biochemical; conditions: concentration of 100 μM
Protocol: The inhibitory action against epoxycarotenoid dioxygenase was studied. The test was carried out according to the method described in The Plant Journal (2001) 27(4), 325-333.
The NCED inhibitory activity of the compounds of the present invention was studied.

Row | SMILES | inhibitory activities against pore closing (spinach) | Length (cm), average length per root (Mung bean) | Germination rate (%) (seeds of barley) | inhibitory action on the abscisic acid biosynthesis [1] | pore closing when treated plants were added with abscisic acid (spinach; compound-treated plants, abscisic acid added) | inhibition of the cleavage reaction of neoxanthin by NCED [2]
1 | COC(=O)CN(CC=Cc1ccc(OC)c(OC)c1)Cc1ccc(F)cc1 [SY97, [[3-(3,4-dimethoxy-phenyl)-allyl]-(4-fluoro-benzyl)-amino]-acetic acid methyl ester] | potent inhibitory activities | 0.7 cm | 18% |  |  | 
2 | COc1ccc(C=CCNCc2ccc(F)cc2)cc1OC [SY95, [3-(3,4-dimethoxy-phenyl)-allyl]-(4-fluoro-benzyl)-amine] | potent inhibitory activities | 0.6 cm | 29% |  |  | 
3 | COc1ccc(NCC=Cc2ccc(OC)c(OC)c2)cc1 [SY87, [3-(3,4-dimethoxy-phenyl)-allyl]-(4-methoxy-phenyl)-amine] | potent inhibitory activities | 0.6 cm | 40% |  |  | 
4 | Oc1ccc(CCNCc2ccncc2)cc1 [SY106, 4-{2-[(pyridin-4-ylmethyl)-2-amino]-ethyl}-phenol] |  | >0.1 cm | 9% |  |  | 
5 | COc1ccc(C=CCN(C)Cc2ccc(F)cc2)cc1OC [SY99, [3-(3,4-dimethoxy-phenyl)-allyl]-(4-fluoro-benzyl)-methyl-amine] | potent inhibitory activities | 0.4 cm | 15% |  |  | 
6 | COc1ccc(CNCCc2ccc(O)cc2)cc1OC [SY88, 4-[2-(3,4-dimethoxy-benzylamino)-ethyl]-phenol] |  | >0.1 cm | 8% |  |  | 
7 | COc1ccc(CCN(C)Cc2ccc(OC)c(OC)c2)cc1 [SY96, (3,4-dimethoxy-benzyl)-[2-(4-methoxy-phenyl)-ethyl]-methyl-amine] | potent inhibitory activities | 1.5 cm | 21% |  |  | 
8 | CC(Cc1ccc(O)c(O)c1)C(C)Cc1ccc(O)c(O)c1 (centres unmarked) [NDGA, 4,4′-(2,3-dimethyl-1,4-butanediyl)bis-1,2-benzenediol] |  |  |  | inhibitory action on the abscisic acid biosynthesis | did not close | completely inhibited
9 | Oc1ccc(CCNCc2ccoc2)cc1 [SY107, 4-{2-[(furan-3-ylmethyl)-amino]-ethyl}-phenol] |  | >0.1 cm | 10% |  |  | 
10 | Oc1ccc(CCNCc2ccc(O)c(O)c2)cc1 [SY90, 4-{[2-(4-hydroxy-phenyl)-ethylamino]-methyl}-benzene-1,2-diol] |  | >0.1 cm | 12% |  |  | 
11 | COC(=O)COc1ccc(CCN(CC(=O)OC)Cc2ccc(OC)c(OC)c2)cc1 [SY94, {(3,4-dimethoxy-benzyl)-[2-(4-methoxycarbonylmethoxy-phenyl)-ethyl]-amino}-acetic acid methyl ester] | potent inhibitory activities | 2.1 cm | 52% |  |  | 
12 | Oc1ccc(CCNCc2ccccc2O)cc1 [SY109, 4-[2-(2-hydroxy-benzylamino)-ethyl]-phenol] | potent inhibitory activities | 1.5 cm | 35% |  |  | 

Source: patent US7432228B2, “Inhibitor against biosynthesis of abscisic acid” (Riken, priority 2001, dated 2008)
